According to ChEMBL document CHEMBL3124792, “Discovery and preclinical characterization of the cyclopropylindolobenzazepine BMS-791325, a potent allosteric inhibitor of the hepatitis C virus NS5B polymerase” (J Med Chem, 2014):
In brackets after ≈: the same amount, converted by molar mass.

Columns and labels:
[1] = Aqueous solubility of the compound at pH 6.5; conditions: buffer
Hepatitis C virus [2] = assay: Antiviral activity against Hepatitis C virus Con1 genotype 1b infected in human HuH7 cells after 3 days by FRET assay in presence of 40% human serum; format: functional, organism-based, Hepacivirus hominis; conditions: isolate Con1, Huh-7, 72 h
[3] = Half life in rat at 10 mg/kg, po; conditions: in vivo
[4] = Aqueous solubility of the compound at pH 7.8; conditions: buffer
Hepatitis C virus [5] = assay: Antiviral activity against Hepatitis C virus genotype 1a by cell-based assay; format: functional, organism-based, Hepacivirus hominis; conditions: subtype 1a
in vivo = conditions: rat, po, 10 mg/kg
[6] = Inhibition of human phosphodiesterase 4 by functional assay
[7] = Half life in human liver microsomes; format: ADME
[8] = Cmax in rat at 5 mg/kg, iv; format: ADME, organism-based; set-up: dose 5 mg/kg, route intravenous; conditions: in vivo
[9] = Permeability of the compound at pH 7.4 by PAMPA; format: physicochemical; conditions: read-out: permeability
Enterovirus C = assay: Antiviral activity against Poliovirus; format: functional, organism-based
[10] = Inhibition of Hepatitis C virus genotype 1a NS5B; set-up: species or system Hepatitis C virus subtype 1a
[11] = molecular target: T1, Voltage-gated inwardly rectifying potassium channel KCNH2 (Homo sapiens, UniProt Q12809); assay: Inhibition of human ERG by fluorescence-based thallium flux assay
[12] = Tmax in rat at 10 mg/kg, po; format: ADME, organism-based; set-up: dose 10 mg/kg, route oral; conditions: in vivo
[13] = tested on: Human immunodeficiency virus; assay: Antiviral activity against Human immunodeficiency virus; format: functional, organism-based; conditions: Human immunodeficiency virus 1
Cytochrome P450 3A4 = Cytochrome P450 3A4 (Homo sapiens, UniProt P08684); assay: Inhibition of CYP3A4 (unknown origin); format: ADME
Homo sapiens = organism: Homo sapiens; assay: Inhibition of human phosphodiesterase 4 at 10 uM relative to control
[14] = Half life in rat at 5 mg/kg, iv; conditions: in vivo
CYP2D6 = CYP2D6 (Homo sapiens, UniProt P10635); assay: Inhibition of CYP2D6 (unknown origin)
[15] = molecular target: T1, Voltage-gated inwardly rectifying potassium channel KCNH2; assay: Inhibition of human ERG by patch-clamp assay
CYP2C19 = CYP2C19 (Homo sapiens, UniProt P33261); assay: Inhibition of CYP2C19 (unknown origin)
Coronaviridae = assay: Antiviral activity against Coronavirus; format: functional, organism-based
Liver microsome [16] = conditions: rat, microsomes
Liver microsome [17] = conditions: human, microsomes
Hepatitis C virus [18] = assay: Antiviral activity against Hepatitis C virus genotype 2a by cell-based assay; format: functional, organism-based, Hepacivirus hominis
Coxsackievirus = assay: Antiviral activity against Coxsackievirus; format: functional, organism-based
[19] = Inhibition of Hepatitis C virus genotype 5a NS5B; set-up: species or system Hepatitis C virus subtype 5a
[20] = Half life in cynomolgus monkey liver microsomes; format: ADME, Macaca fascicularis, Microsome
[21] = Solubility of the compound in amorphous form in phosphate buffer at pH 6.5; format: physicochemical
CYP2C9 = CYP2C9 (Homo sapiens, UniProt P11712); assay: Inhibition of CYP2C9 (unknown origin)
[22] = Inhibition of Hepatitis C virus genotype 3a NS5B; set-up: species or system Hepatitis C virus subtype 3a
[23] = Aqueous solubility of the compound at pH 2.2; conditions: buffer
[24] = tested on: unidentified influenza virus; assay: Antiviral activity against Influenza virus; format: functional, organism-based
[25] = Inhibition of HCV Con1 genotype 1b recombinant wild-type NS5B polymerase-mediated incorporation of radiolabeled nucleotides by scintillation proximity assay; set-up: species or system Hepatitis C virus (isolate Con1)
[26] = Volume of distribution in rat at 5 mg/kg, iv; conditions: in vivo
[27] = Cytotoxicity against human HuH7 cells by Alamar blue assay; format: cell-based; conditions: Huh-7 cells
[28] = tested on: Bovine viral diarrhea virus 1; assay: Antiviral activity against Bovine viral diarrhea virus; format: functional, organism-based; conditions: Bovine viral diarrhea virus isolates and strains
[29] = Inhibition of Hepatitis C virus genotype 1b NS5B; set-up: species or system Hepatitis C virus subtype 1b
PXR (NR1I2) = molecular target: T2, PXR (NR1I2) (Homo sapiens, UniProt O75469); assay: Transactivation of human PXR expressed in human HepG2 cells at 5.56 uM by luciferase reporter gene assay relative to control; format: cell-based; conditions: HepG2 cells that express human PXR, read-out: %max
T2 sequence (O75469 whole entry): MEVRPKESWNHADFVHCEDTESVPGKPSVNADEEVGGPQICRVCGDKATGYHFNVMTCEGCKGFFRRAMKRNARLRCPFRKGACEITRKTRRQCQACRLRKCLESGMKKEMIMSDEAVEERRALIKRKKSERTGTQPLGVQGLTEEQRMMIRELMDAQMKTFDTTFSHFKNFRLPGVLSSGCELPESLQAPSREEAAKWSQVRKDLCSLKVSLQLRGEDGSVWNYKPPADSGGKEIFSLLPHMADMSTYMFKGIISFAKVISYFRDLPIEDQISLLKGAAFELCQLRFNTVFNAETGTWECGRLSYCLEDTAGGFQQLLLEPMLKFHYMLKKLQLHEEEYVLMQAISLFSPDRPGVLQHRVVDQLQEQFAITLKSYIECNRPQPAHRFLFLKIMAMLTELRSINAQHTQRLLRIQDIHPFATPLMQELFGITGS

Rattus norvegicus = assay: AUC (0 to infinity) in rat at 5 mg/kg, iv; format: ADME, organism-based, Plasma; set-up: time infinity, dose 5 mg/kg, route intravenous; conditions: in vivo
[30] = Cmax in rat at 10 mg/kg, po; format: ADME, organism-based; set-up: dose 10 mg/kg, route oral; conditions: in vivo
CYP1A2 = CYP1A2 (Homo sapiens, UniProt P05177); assay: Inhibition of CYP1A2 (unknown origin)
Hepatitis C virus [31] = assay: Antiviral activity against Hepatitis C virus H77c genotype 1a infected in human HuH7 cells after 3 days by FRET assay; format: functional, organism-based, Hepacivirus hominis; conditions: genotype 1a H77, Huh-7, 72 h
[32] = Half life in rat liver microsomes; format: ADME
[33] = Inhibition of Hepatitis C virus genotype 4a NS5B; set-up: species or system Hepatitis C virus subtype 4a
[34] = AUC (0 to infinity) in rat at 10 mg/kg, po; format: ADME, organism-based; set-up: time infinity, dose 10 mg/kg, route oral; conditions: plasma
Enterovirus = assay: Antiviral activity against Rhinovirus; format: functional, organism-based
[35] = Half life in dog liver microsomes; format: ADME, Canis lupus familiaris
[36] = Protein binding in human serum; format: ADME, cell-free; conditions: read-out: PB (converted)
Hepatitis C virus [37] = assay: Antiviral activity against Hepatitis C virus genotype 1b by cell-based assay; format: functional, organism-based, Hepacivirus hominis

T1 sequence (Q12809 whole entry): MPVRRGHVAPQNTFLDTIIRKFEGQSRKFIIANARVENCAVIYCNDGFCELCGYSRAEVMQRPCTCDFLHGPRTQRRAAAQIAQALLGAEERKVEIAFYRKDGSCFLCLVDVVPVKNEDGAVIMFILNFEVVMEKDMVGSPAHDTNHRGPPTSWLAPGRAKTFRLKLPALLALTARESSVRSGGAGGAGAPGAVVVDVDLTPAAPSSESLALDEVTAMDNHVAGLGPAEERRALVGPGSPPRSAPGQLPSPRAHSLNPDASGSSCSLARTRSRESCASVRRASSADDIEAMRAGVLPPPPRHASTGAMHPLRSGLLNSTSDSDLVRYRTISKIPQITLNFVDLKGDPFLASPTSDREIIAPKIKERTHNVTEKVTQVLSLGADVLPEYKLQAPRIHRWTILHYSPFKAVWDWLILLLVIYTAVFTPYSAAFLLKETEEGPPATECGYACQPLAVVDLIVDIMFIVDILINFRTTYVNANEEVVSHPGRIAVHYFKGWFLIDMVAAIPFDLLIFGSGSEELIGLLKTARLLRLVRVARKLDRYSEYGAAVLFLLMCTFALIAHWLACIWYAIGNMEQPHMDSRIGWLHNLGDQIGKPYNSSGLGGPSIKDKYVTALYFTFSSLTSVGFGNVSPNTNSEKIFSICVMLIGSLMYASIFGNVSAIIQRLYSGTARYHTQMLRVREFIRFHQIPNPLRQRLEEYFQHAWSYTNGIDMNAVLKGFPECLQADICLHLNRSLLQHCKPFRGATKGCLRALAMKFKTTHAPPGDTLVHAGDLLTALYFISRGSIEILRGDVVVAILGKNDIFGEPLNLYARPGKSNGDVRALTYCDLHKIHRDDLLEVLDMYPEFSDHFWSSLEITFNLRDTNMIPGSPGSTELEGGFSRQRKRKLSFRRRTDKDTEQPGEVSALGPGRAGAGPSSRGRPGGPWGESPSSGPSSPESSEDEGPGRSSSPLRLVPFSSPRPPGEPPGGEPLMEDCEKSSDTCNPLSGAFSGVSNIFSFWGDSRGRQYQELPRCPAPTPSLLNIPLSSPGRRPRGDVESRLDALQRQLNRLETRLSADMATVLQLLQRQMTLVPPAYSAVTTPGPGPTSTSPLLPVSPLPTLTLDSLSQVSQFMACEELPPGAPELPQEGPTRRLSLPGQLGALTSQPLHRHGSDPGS
CYP2C9, sequence (P11712 whole entry): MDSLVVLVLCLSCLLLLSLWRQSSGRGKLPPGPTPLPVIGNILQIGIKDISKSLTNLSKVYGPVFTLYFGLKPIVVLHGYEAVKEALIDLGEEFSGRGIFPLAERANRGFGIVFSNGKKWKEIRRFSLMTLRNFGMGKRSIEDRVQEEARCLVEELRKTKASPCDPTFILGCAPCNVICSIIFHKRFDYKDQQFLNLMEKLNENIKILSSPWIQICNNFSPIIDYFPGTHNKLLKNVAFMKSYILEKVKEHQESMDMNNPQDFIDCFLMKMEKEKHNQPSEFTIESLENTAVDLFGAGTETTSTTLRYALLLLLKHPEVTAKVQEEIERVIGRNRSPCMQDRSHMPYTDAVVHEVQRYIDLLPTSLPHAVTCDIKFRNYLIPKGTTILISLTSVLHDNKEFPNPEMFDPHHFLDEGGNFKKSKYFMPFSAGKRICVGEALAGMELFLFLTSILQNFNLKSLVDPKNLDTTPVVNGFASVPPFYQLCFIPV
CYP1A2, sequence (P05177 whole entry): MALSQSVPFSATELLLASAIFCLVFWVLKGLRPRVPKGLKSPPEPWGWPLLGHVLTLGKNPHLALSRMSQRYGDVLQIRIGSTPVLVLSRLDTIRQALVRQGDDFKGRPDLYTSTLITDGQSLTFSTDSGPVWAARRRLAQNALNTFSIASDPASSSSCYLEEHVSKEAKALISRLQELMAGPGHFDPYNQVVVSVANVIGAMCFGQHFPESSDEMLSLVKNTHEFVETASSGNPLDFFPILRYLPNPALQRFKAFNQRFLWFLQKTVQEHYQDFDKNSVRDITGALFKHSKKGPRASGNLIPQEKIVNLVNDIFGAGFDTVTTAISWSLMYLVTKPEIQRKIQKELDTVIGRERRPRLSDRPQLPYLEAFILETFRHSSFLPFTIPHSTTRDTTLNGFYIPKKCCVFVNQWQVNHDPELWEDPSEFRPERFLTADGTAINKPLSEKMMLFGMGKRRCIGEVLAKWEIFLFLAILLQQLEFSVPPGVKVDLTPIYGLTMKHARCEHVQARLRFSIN
Cytochrome P450 3A4, sequence (P08684 whole entry): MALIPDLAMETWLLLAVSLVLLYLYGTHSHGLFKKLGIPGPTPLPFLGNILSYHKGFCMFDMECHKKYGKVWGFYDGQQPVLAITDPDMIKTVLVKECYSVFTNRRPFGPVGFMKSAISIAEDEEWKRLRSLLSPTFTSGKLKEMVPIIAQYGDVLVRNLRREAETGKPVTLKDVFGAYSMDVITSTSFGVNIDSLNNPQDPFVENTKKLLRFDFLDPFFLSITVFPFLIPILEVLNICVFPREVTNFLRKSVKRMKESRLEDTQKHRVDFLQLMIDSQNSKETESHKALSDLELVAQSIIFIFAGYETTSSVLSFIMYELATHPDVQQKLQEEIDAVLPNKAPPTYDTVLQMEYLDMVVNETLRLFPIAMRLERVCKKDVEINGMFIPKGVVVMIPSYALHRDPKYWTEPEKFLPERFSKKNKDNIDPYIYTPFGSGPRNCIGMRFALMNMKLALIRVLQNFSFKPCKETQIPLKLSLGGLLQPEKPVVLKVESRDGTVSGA
CYP2C19, sequence (P33261 whole entry): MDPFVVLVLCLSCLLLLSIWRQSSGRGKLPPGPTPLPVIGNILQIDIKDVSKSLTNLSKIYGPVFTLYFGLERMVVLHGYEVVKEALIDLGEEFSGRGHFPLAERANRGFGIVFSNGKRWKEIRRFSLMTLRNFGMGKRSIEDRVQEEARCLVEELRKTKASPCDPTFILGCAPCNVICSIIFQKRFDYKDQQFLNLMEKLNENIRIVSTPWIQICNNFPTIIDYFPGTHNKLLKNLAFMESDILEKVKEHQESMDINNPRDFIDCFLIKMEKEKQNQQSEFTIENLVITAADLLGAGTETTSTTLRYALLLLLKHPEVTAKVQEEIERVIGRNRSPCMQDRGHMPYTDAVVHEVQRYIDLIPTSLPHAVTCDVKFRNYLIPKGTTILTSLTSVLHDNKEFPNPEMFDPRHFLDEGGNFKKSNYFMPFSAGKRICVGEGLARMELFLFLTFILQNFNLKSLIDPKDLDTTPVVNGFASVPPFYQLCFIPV
CYP2D6, sequence (P10635 whole entry): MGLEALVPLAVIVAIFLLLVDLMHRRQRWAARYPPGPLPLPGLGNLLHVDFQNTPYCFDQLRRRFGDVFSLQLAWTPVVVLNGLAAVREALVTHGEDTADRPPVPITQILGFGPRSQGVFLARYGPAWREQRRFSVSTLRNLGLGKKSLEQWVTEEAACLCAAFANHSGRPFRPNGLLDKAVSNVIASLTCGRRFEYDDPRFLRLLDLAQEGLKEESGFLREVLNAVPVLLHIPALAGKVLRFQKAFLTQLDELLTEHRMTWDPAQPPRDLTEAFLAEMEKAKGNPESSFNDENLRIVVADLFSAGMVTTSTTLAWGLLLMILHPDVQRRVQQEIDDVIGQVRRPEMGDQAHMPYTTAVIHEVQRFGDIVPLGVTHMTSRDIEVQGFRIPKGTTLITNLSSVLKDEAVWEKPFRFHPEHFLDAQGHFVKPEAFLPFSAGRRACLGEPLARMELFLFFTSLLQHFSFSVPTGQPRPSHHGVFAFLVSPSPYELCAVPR

COc1ccc2c(c1)[C@@H]1C[C@]1(C(=O)N1[C@@H]3CC[C@H]1CN(C)C3)Cn1c-2c(C2CCCCC2)c2ccc(C(=O)NS(=O)(=O)N(C)C)cc21 [BECLABUVIR]
solubility [1]: 20 µg/mL (≈ 30.3 µM)
EC50 (Hepatitis C virus [2]): 28 nM
half-life [3]: 8.3 h
solubility [4]: > 1600 µg/mL
EC50 (Hepatitis C virus [5]): 3 nM
bioavailability (in vivo): 66%
IC50 [6]: 10000 nM
half-life [7]: 0.883 h
Cmax [8]: 12.1 µM
Papp [9]: 64 ×10⁻⁶ cm/s
EC50 (Enterovirus C): > 14000 nM
IC50 [10]: 3 nM
IC50 [11]: 24500 nM
Tmax [12]: 5.3 h
EC50 [13]: > 14000 nM
IC50 (Cytochrome P450 3A4): > 40000 nM
inhibition (Homo sapiens): 57%
half-life [14]: 11.5 h
IC50 (CYP2D6): > 40000 nM
IC50 [15]: 12400 nM
IC50 (CYP2C19): > 40000 nM
EC50 (Coronaviridae): > 14000 nM
Stability (Liver microsome [16]): 99%
Stability (Liver microsome [17]): 90%
EC50 (Hepatitis C virus [18]): 87 nM
EC50 (Coxsackievirus): > 14000 nM
IC50 [19]: 5 nM
half-life [20]: 0.383 h
solubility [21]: 29 µg/mL (≈ 43.9 µM)
IC50 (CYP2C9): > 40000 nM
IC50 [22]: 2 nM
solubility [23]: > 1600 µg/mL
EC50 [24]: > 14000 nM
IC50 [25]: 20 nM
Vd [26]: 2.7 L/kg
CC50 [27]: > 10000 nM
EC50 [28]: > 14000 nM
IC50 [29]: 4 nM
activity at 5.56 µM (PXR (NR1I2)): 8.1%
AUC (Rattus norvegicus): 30 µM·h
Cmax [30]: 3.26 µM
IC50 (CYP1A2): > 40000 nM
EC50 (Hepatitis C virus [31]): 3 nM
half-life [32]: > 3.33 h
IC50 [33]: 20 nM
AUC(0-inf) [34]: 39.3 µM·h
EC50 (Enterovirus): > 14000 nM
half-life [35]: > 3.33 h
fraction unbound [36]: 0.02

Cn1c(C2(NC(=O)c3ccc4c(C5CCCC5)c(-c5ncc(Br)cn5)n(C)c4c3)CCC2)nc2ccc(/C=C/C(=O)O)cc21 [DELEOBUVIR]
EC50 (Hepatitis C virus [37]): 17 nM
EC50 (Hepatitis C virus [5]): 43 nM
